{"source": "ChEMBL document CHEMBL1149386", "about": "“Design and synthesis of 5-aryl-pyridone-carboxamides as inhibitors of anaplastic lymphoma kinase” (J Med Chem, 2006)", "key": {"[1]": {"molecular_target": "ALK tyrosine kinase receptor (Homo sapiens, UniProt Q9UM73)", "assay": "Inhibitory activity against ALK"}, "[2]": {"molecular_target": "Insulin receptor (Homo sapiens, UniProt P06213)", "sequence (P06213 28-758 limits assumed)": "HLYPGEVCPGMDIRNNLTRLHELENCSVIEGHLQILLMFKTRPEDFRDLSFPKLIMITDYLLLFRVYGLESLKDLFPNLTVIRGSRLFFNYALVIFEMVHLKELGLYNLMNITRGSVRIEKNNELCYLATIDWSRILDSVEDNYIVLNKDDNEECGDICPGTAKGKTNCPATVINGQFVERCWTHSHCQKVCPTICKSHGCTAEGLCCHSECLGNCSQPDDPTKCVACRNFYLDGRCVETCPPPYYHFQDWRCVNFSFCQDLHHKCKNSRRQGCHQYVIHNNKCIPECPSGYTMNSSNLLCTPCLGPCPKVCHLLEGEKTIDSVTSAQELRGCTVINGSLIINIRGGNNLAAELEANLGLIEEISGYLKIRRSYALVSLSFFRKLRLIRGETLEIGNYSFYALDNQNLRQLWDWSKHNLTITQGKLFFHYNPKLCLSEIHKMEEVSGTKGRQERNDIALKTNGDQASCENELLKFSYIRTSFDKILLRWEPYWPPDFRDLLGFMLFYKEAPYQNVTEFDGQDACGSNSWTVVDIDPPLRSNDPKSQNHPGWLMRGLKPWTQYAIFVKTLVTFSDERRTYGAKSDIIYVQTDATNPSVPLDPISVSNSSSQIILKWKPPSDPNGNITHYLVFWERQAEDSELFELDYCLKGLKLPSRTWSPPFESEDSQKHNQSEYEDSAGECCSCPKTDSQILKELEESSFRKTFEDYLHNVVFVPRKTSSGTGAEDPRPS", "sequence (P06213 763-1382 limits assumed)": "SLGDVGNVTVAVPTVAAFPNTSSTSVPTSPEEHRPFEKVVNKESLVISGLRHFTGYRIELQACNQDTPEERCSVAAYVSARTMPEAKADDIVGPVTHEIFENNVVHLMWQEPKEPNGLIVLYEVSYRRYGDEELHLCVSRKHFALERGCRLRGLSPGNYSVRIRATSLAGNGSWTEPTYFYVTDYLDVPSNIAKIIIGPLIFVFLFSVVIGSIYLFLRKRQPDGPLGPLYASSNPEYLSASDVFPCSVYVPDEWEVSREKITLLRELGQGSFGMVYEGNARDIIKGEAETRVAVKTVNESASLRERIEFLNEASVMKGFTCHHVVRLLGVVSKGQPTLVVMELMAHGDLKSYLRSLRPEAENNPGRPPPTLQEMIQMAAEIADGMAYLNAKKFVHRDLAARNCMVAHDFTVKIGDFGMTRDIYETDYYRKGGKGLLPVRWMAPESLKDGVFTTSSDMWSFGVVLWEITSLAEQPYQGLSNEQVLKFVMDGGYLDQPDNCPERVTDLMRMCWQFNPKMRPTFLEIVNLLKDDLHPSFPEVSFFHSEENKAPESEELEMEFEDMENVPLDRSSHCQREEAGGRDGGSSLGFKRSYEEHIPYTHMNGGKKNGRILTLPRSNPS", "assay": "Inhibitory activity against IRK"}, "[3]": {"molecular_target": "T1, Receptor-type tyrosine-protein kinase FLT3 (Homo sapiens, UniProt P36888)", "T1 sequence (P36888 whole entry)": "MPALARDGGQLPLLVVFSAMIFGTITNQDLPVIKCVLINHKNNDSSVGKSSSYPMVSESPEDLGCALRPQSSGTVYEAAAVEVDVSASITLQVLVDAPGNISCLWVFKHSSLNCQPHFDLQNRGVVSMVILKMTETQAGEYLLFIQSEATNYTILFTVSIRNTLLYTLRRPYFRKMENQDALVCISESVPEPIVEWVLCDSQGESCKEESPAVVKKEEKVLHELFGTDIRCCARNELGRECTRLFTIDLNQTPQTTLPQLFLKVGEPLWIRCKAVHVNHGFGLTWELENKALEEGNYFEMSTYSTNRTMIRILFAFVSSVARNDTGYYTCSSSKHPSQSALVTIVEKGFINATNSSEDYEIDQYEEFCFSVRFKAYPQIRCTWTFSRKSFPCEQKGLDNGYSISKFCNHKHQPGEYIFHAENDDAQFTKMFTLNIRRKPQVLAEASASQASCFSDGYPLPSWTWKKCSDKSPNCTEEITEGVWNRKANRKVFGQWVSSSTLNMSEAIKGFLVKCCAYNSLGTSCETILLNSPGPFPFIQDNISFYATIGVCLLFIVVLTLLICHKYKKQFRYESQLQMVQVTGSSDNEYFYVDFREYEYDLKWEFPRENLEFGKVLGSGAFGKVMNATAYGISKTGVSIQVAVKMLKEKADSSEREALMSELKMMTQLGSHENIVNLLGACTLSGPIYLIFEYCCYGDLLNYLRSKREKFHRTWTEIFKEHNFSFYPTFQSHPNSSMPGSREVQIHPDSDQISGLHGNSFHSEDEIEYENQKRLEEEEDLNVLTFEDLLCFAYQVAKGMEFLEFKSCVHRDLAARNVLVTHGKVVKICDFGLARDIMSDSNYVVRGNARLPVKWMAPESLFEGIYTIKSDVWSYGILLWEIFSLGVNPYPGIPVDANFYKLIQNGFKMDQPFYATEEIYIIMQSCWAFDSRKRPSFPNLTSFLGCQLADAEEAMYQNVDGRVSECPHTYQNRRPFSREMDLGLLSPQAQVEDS", "assay": "Inhibitory activity against Flt3"}, "[4]": {"molecular_target": "Tyrosine-protein kinase ABL1 (Homo sapiens, UniProt P00519)", "sequence (P00519 whole entry)": "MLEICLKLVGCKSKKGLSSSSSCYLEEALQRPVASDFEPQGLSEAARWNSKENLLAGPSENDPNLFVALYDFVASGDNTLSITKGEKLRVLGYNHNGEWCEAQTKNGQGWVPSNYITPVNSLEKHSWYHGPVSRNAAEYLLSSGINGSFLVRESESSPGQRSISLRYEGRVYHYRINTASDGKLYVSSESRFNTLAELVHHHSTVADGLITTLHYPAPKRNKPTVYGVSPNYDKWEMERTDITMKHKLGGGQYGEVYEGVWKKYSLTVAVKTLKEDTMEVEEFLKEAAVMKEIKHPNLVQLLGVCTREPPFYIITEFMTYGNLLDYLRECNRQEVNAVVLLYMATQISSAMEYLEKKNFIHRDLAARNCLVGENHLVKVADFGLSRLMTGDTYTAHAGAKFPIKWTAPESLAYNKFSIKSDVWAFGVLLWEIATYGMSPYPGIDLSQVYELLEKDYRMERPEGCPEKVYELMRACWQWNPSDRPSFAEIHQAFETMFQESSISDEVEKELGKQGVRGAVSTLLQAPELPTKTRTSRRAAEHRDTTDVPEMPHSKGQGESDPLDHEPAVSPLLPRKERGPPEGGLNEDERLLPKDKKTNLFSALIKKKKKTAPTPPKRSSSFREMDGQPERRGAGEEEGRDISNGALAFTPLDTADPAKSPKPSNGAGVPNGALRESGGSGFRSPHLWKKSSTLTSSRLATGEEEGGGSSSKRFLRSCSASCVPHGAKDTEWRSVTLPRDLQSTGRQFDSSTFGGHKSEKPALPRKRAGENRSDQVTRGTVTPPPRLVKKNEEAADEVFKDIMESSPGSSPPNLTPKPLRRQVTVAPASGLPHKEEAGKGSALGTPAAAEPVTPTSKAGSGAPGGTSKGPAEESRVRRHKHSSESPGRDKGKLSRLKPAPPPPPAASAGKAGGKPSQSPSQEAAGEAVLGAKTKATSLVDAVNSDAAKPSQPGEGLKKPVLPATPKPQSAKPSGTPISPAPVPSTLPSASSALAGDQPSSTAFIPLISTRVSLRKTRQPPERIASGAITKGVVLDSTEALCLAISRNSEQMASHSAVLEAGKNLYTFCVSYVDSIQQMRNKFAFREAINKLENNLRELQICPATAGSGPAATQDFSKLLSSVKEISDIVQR", "assay": "Inhibitory activity against Abl"}, "[5]": {"molecular_target": "Proto-oncogene tyrosine-protein kinase Src (Homo sapiens, UniProt P12931)", "sequence (P12931 2-536 limits assumed)": "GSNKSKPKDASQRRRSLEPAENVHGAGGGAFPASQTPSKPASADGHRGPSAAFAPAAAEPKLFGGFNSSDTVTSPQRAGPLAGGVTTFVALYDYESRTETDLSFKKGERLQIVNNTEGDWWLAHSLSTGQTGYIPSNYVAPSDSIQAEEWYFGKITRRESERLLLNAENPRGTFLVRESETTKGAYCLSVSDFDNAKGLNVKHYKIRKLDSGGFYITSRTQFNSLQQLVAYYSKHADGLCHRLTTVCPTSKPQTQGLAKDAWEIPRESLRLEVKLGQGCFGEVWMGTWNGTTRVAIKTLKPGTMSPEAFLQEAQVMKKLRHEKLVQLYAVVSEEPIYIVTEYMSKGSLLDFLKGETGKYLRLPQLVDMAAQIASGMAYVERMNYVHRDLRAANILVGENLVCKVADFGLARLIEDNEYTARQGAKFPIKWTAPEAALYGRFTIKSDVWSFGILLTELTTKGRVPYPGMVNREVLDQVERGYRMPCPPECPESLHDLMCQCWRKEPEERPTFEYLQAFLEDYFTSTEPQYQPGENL", "assay": "Inhibitory activity against Src"}, "[6]": {"test_system": "BaF3", "assay": "Antiproliferative activity against parental interleukin-3-dependent BaF3 cell line", "assay_type": "functional, cell-based", "settings": "Mus musculus"}, "[7]": {"molecular_target": "Bcr/Abl fusion protein (Homo sapiens, UniProt P00519)", "sequence (P00519 whole entry, the tested form may be a part)": "as the sequence (P00519 whole entry) above", "sequence (P11274 whole entry, further chain, the tested form may be a part)": "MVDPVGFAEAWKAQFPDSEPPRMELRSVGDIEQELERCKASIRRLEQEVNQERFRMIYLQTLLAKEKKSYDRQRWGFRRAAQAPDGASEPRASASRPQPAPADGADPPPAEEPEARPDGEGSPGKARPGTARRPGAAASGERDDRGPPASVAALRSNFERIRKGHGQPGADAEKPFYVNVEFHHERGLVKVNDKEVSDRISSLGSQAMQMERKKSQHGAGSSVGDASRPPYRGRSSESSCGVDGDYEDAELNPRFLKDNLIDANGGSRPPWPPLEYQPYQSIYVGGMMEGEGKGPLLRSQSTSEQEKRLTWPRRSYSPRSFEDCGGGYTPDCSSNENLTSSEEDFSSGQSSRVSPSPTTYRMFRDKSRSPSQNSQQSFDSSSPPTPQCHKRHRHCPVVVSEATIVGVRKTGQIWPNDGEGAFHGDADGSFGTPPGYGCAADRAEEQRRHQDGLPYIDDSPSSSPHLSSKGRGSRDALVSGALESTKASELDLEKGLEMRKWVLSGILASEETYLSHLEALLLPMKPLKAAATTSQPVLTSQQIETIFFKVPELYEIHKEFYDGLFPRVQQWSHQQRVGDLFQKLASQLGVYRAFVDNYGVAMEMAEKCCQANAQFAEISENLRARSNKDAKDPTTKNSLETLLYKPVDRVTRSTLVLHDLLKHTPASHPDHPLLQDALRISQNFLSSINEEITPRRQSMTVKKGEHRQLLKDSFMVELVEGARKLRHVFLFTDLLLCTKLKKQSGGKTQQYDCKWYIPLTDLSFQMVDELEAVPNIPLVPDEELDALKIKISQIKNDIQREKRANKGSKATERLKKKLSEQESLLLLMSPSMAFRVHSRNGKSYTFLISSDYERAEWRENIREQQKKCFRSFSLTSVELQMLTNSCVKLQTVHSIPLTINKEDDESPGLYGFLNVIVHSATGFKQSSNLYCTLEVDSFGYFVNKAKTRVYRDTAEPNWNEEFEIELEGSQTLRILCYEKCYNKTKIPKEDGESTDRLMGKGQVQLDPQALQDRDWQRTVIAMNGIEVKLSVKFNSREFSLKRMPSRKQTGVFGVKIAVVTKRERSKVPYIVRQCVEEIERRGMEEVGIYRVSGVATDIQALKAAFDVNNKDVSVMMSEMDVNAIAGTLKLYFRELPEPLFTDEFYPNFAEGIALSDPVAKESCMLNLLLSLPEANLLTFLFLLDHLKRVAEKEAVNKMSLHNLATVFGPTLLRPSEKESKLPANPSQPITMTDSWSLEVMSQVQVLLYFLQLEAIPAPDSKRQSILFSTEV", "assay": "Antiproliferative activity against human BCR-ABL positive chronic myeloid leukemia K562 cell line", "assay_type": "functional, cell-based"}, "[8]": {"test_system": "Jurkat", "assay": "Antiproliferative activity against human T-cell leukemia Jurkat cell line", "assay_type": "functional, cell-based"}, "[9]": {"molecular_target": "Insulin-like growth factor 1 receptor (Homo sapiens, UniProt P08069)", "assay": "Inhibitory activity against IGF1R"}}}
{"molecule": "CN1CCN(Cc2ccc(NC(=O)c3cc(-c4ccncc4)cnc3O)cc2)CC1", "values": [{"measurement": "IC50", "setting": "[1]", "result": 19.5, "unit": "µM"}, {"measurement": "IC50", "setting": "[2]", "result": "> 40", "unit": "µM"}]}
{"molecule": "Cc1cc(CN2CCN(C)CC2)ccc1NC(=O)c1cc(-c2ccc3c(c2)OCO3)cnc1O", "values": [{"measurement": "IC50", "setting": "[1]", "result": 14.5, "unit": "µM"}, {"measurement": "IC50", "setting": "[2]", "result": "> 40", "unit": "µM"}]}
{"molecule": "CN1CCN(Cc2ccc(NC(=O)c3cc(-c4ccc5c(c4)OCO5)cnc3Cl)cc2)CC1", "values": [{"measurement": "IC50", "setting": "[1]", "result": 26.8, "unit": "µM"}, {"measurement": "IC50", "setting": "[2]", "result": 27.3, "unit": "µM"}]}
{"molecule": "CN1CCN(CCc2ccc(NC(=O)c3cc(-c4ccc5c(c4)OCO5)cnc3O)cc2)CC1", "values": [{"measurement": "IC50", "setting": "[3]", "result": 4, "unit": "µM"}, {"measurement": "IC50", "setting": "[4]", "result": "> 20", "unit": "µM"}, {"measurement": "IC50", "setting": "[5]", "result": "> 20", "unit": "µM"}, {"measurement": "IC50", "setting": "[6]", "result": 18, "unit": "µM"}, {"measurement": "IC50", "setting": "[1]", "result": 0.4, "unit": "µM"}, {"measurement": "Ki", "setting": "[1]", "result": 0.2, "unit": "µM"}, {"measurement": "IC50", "setting": "[7]", "result": 9.5, "unit": "µM"}, {"measurement": "IC50", "setting": "[8]", "result": 4.7, "unit": "µM"}]}
{"molecule": "CN1CCN(Cc2ccc(NC(=O)c3cc(-c4ccc5c(c4)OCO5)cn(C)c3=O)cc2)CC1", "values": [{"measurement": "IC50", "setting": "[1]", "result": "> 40", "unit": "µM"}, {"measurement": "IC50", "setting": "[2]", "result": "> 40", "unit": "µM"}]}
{"molecule": "Cc1nc2cc(-c3cnc(O)c(C(=O)Nc4ccc(CN5CCN(C)CC5)cc4)c3)ccc2s1", "values": [{"measurement": "IC50", "setting": "[1]", "result": 3.8, "unit": "µM"}, {"measurement": "IC50", "setting": "[2]", "result": 16, "unit": "µM"}]}
{"molecule": "CN1CCN(Cc2ccc(N(C)C(=O)c3cc(-c4ccc5c(c4)OCO5)cnc3O)cc2)CC1", "values": [{"measurement": "IC50", "setting": "[1]", "result": 3.7, "unit": "µM"}, {"measurement": "IC50", "setting": "[2]", "result": 32.5, "unit": "µM"}]}
{"molecule": "COc1cc(CN2CCN(C)CC2)ccc1NC(=O)c1cc(-c2ccc3c(c2)OCO3)cnc1O", "values": [{"measurement": "IC50", "setting": "[1]", "result": 13.8, "unit": "µM"}, {"measurement": "IC50", "setting": "[2]", "result": "> 40", "unit": "µM"}]}
{"molecule": "CN1CCN(Cc2ccc(NC(=O)c3cc(-c4ccc5nccnc5c4)c[nH]c3=O)cc2)CC1", "values": [{"measurement": "IC50", "setting": "[1]", "result": 5.5, "unit": "µM"}, {"measurement": "IC50", "setting": "[2]", "result": 7, "unit": "µM"}]}
{"molecule": "COc1cc(-c2c[nH]c(=O)c(C(=O)Nc3ccc(CN4CCN(C)CC4)cc3)c2)cc(OC)c1OC", "values": [{"measurement": "IC50", "setting": "[1]", "result": 7.5, "unit": "µM"}, {"measurement": "IC50", "setting": "[2]", "result": 33.5, "unit": "µM"}]}
{"molecule": "COc1ccc(-c2c[nH]c(=O)c(C(=O)Nc3ccc(CN4CCN(C)CC4)cc3)c2)cn1", "values": [{"measurement": "IC50", "setting": "[1]", "result": 3, "unit": "µM"}, {"measurement": "IC50", "setting": "[2]", "result": 13.8, "unit": "µM"}]}
{"molecule": "CN1CCN(Cc2ccc(NC(=O)c3cc(-c4ccc5c(c4)OCO5)cnc3O)cc2)CC1", "values": [{"measurement": "IC50", "setting": "[9]", "result": "> 20", "unit": "µM"}, {"measurement": "IC50", "setting": "[3]", "result": "> 20", "unit": "µM"}, {"measurement": "IC50", "setting": "[4]", "result": "> 20", "unit": "µM"}, {"measurement": "IC50", "setting": "[5]", "result": "> 20", "unit": "µM"}, {"measurement": "IC50", "setting": "[6]", "result": "> 25", "unit": "µM"}, {"measurement": "IC50", "setting": "[1]", "result": 0.9, "unit": "µM"}, {"measurement": "Ki", "setting": "[1]", "result": 0.5, "unit": "µM"}, {"measurement": "IC50", "setting": "[7]", "result": 12.9, "unit": "µM"}, {"measurement": "IC50", "setting": "[8]", "result": 9.2, "unit": "µM"}]}
{"molecule": "CN1CCN(CCCc2ccc(NC(=O)c3cc(-c4ccc5c(c4)OCO5)cnc3O)cc2)CC1", "values": [{"measurement": "IC50", "setting": "[9]", "result": "> 20", "unit": "µM"}, {"measurement": "IC50", "setting": "[3]", "result": "> 20", "unit": "µM"}, {"measurement": "IC50", "setting": "[4]", "result": "> 20", "unit": "µM"}, {"measurement": "IC50", "setting": "[5]", "result": "> 20", "unit": "µM"}, {"measurement": "IC50", "setting": "[6]", "result": 16.2, "unit": "µM"}, {"measurement": "IC50", "setting": "[1]", "result": 1.3, "unit": "µM"}, {"measurement": "Ki", "setting": "[1]", "result": 1.1, "unit": "µM"}, {"measurement": "IC50", "setting": "[2]", "result": 10.1, "unit": "µM"}, {"measurement": "Ki", "setting": "[2]", "result": 9, "unit": "µM"}, {"measurement": "IC50", "setting": "[7]", "result": 14.6, "unit": "µM"}, {"measurement": "IC50", "setting": "[8]", "result": 9.3, "unit": "µM"}]}
{"molecule": "COc1ncc(-c2ccc3c(c2)OCO3)cc1C(=O)Nc1ccc(CN2CCN(C)CC2)cc1", "values": [{"measurement": "IC50", "setting": "[1]", "result": 20.3, "unit": "µM"}, {"measurement": "IC50", "setting": "[2]", "result": "> 40", "unit": "µM"}]}
{"molecule": "CN1CCN(c2ccc(NC(=O)c3cc(-c4ccc5c(c4)OCO5)c[nH]c3=O)cc2)CC1", "values": [{"measurement": "IC50", "setting": "[3]", "result": 5, "unit": "µM"}, {"measurement": "IC50", "setting": "[4]", "result": "> 20", "unit": "µM"}, {"measurement": "IC50", "setting": "[5]", "result": "> 20", "unit": "µM"}, {"measurement": "IC50", "setting": "[7]", "result": 3.8, "unit": "µM"}]}
